Experimental data: patent publication US20260258425A1, “MALT1 TUMOR INHIBITOR, PHARMACEUTICAL COMPOSITION CONTAINING THE SAME, AND APPLICATIONS THEREOF” (XZYP (BEIJING) BIOTECH CO., LTD, priority 2023, published 2026)
“Also recorded” adds a separate entry of the source.

Columns and labels:
MALT1 = test: Western blot of MALT1 expression in E0771 cells after ASO transfection with Lipofectamine 3000; assay type: cell-based, mouse; settings: ASO final concentration 50 nM, 5 μL Lipofectamine 3000, 48 hours after transfection
Excerpt: S1. Considering the specificity between the antisense nucleic acid and the target nucleic acid and the hairpin-like structure that may be formed by the base complementarity within the nucleotide sequence of the antisense nucleic acid, the nucleotide sequence of the antisense nucleic acid needs to target the amino acid residues at positions 81 and/or 82 of the death domain (DD) of MALT1; S2. Considering the stability of hybridization and the membrane permeability of the antisense oligonucleotide, select the length of the antisense oligonucleotide, which ranges from 15 to 40 bases; S3. Considering the affinity of the antisense oligonucleotide for the target sequence, since the affinity of GC base pairs is greater than that between AU, increasing the ratio of GC base pairs to AU base pairs in the antisense oligonucleotide can appropriately reduce the length of the antisense oligonucleotide; S4. Set a control, which can be missense or reverse; S5. Use the designed antisense oligonucleotides to inhibit the expression of the same target sequence MALT-1 mRNA, and screen the antisense oligonucleotide with the best inhibitory effect. The specific steps for screening the antisense oligonucleotide with the best inhibitory effect are as follows: • a. […] 2×10^5 E0771 cells into each well of a 12-well plate and incubate overnight; • b. On the day after operation a, transfect the corresponding ASO drug with 5 μL of Lipofectamine™ 3000 until its final concentration is 50 nM; • c. 6 hours after operation b, replace the serum-free medium with medium containing 10% serum; • d. 24 hours after operation c, replace the serum-free medium again; • e. 48 hours after operation d, harvest the obtained protein and perform Western blot experiment. The Western blot results of antisense oligonucleotides targeting E0771 cells after transfection with Lipofectamine™ 3000 are shown in FIG. 5: in this figure, 48 hours after transfection with Lipofectamine™ 3000, 5 μL of Lipofectamine™ 3000 was added to each well of the 12-well plate.

4T1 cells [1] = test: 4T1 breast cancer model, systemic ASO24 (tail vein LNP-ASO), tumor volume; assay type: in vivo, mouse
Procedure: (§1) Study on the Effect Comparison between ASO Prodrug and PD-1/PD-L1 and Their Combined Use Based on Systemic Administration Experimental Data of Various Mouse Breast Cancer Models and Melanoma Models (Administration Started 7 Days Later, Once Every 3 Days).
(§2) The experimental process is similar to the intratumoral administration of ASO24 in E0771 cells, with the difference that ASO24 is administered via systemic delivery by tail vein injection of LNP-ASO in mice.

[2] = test system: breast cancer cells (E0771); test: Verification of ASO prodrug in breast cancer cells E0771 (FIG. 18); assay type: cell-based, mouse
B16F10 cells = test: B16F10 subcutaneous melanoma model, intratumoral ASO, tumor volume; assay type: in vivo, mouse; settings: mean, n=10
Excerpt: (§3) Based on the intratumoral experimental data of various mouse breast cancer models and melanoma models (administration started 7 days later, once every 3 days), this example studies the effect comparison between the ASO prodrug (ASO24, whose sequence is shown in SEQ ID No. 2) and PD-1/PD-L1, as well as the effect of their combination.
(§4) 1×10^5 E0771 cells were orthotopically injected into the fat pad of wild-type mice. Starting from day 7, PD-1 antibody (BioXCell #BE0033, clone J43, the same below) monotherapy, ASO monotherapy, or combined PD-1 antibody and ASO therapy was initiated. For anti-PD-1 antibody monotherapy, intraperitoneal injection was performed once a week at a dose of 3 mg/kg starting 7 days after tumor transplantation, and the control group was injected with DPBS. For MALT1 ASO monotherapy, in vivo-jetPEI®, in vivo DNA transfection kit was used according to the instructions. Intratumoral injection was performed twice a week at a dose of 5 nmol starting 7 days after tumor transplantation, and the control group was injected with solvent or nontarget ASO. Combined therapy will receive the two specified monotherapies. Tumor measurement was started after administration, once every three days. n=12. Data are expressed as mean. Statistical analysis was performed using Two way ANOVA. ** represents p <0.01.
1×10^5 B16F10 cells were subcutaneously injected near the subcutaneous tissue of the groin of wild-type mice. Starting from day 7, PD-1 antibody monotherapy, ASO monotherapy, or combined PD-1 antibody and ASO therapy was initiated. n=10. Data are expressed as mean. Statistical analysis was performed using Two way ANOVA. ** represents p<0.01.

E0771 cells [3] = test: E0771 orthotopic breast cancer model, intratumoral ASO, tumor volume; assay type: in vivo, mouse; settings: ASO 5 nmol intratumoral twice a week, mean, n=12
Excerpt: as §3, §4

PyMT-A cells = test: PyMT-A orthotopic breast cancer model, intratumoral ASO, tumor volume; assay type: in vivo, mouse; settings: mean, n=10
Excerpt: as §3, §4
(§5) 1×10^5 PyMT-A cells were orthotopically injected into the fat pad of wild-type mice. Starting from day 7, PD-1 antibody monotherapy, ASO monotherapy, or combined PD-1 antibody and ASO therapy was initiated. n=10. Data are expressed as mean. Statistical analysis was performed using Two way ANOVA. n.s. represents no significant difference. ** represents p <0.01.

E0771 cells [4] = test: E0771 breast cancer model, systemic ASO24 (tail vein LNP-ASO), tumor volume; assay type: in vivo, mouse
Procedure: as §4, §1, §2

4T1 cells [5] = test: 4T1 orthotopic breast cancer model, intratumoral ASO, tumor volume; assay type: in vivo, mouse; settings: mean, n=10
Excerpt: as §3, §4
as §5, with “2×10^5 4T1” for “1×10^5 PyMT-A”

ABC DLBCL cells = settings: background statement; cited from earlier work
[6] = test system: germinal center B-cell (GCB) type DLBCL cells; settings: background statement; cells independent of BCR signaling; cited from earlier work
[7] = Day 7 (start of administration), ASO24 systemic by tail vein LNP-ASO
[8] = Day 9, ASO24 systemic by tail vein LNP-ASO, administration from day 7
[9] = Day 11, ASO24 systemic by tail vein LNP-ASO, administration from day 7
[10] = Day 13, ASO24 systemic by tail vein LNP-ASO, administration from day 7
[11] = Day 15, ASO24 systemic by tail vein LNP-ASO, administration from day 7
[12] = Day 17, ASO24 systemic by tail vein LNP-ASO, administration from day 7
[13] = Day 19, ASO24 systemic by tail vein LNP-ASO, administration from day 7

With “AAGTTCATGAGCCTTGGCCC (antisense AAGUUCAUGAGCCUUGGCCC; listed as RNA, chemistry not given here) [ASO C]” the “inhibition of MALT1 expression (Western blot band)” value (“inhibition of MALT1 expression” below) (MALT1) was “good inhibitory results; also recorded: good inhibitory effects”.
With “AGCCTTGGCCCACTGTAGATT (antisense AGCCUUGGCCCACUGUAGAUU; listed as RNA, chemistry not given here) [ASO A]” the “inhibition of MALT1 expression” value (MALT1) was “good inhibitory results; also recorded: good inhibitory effects”.
For “CAAGAGCAGATTTATTTTGT (antisense CAAGAGCAGAUUUAUUUUGU; listed as RNA, chemistry not given here) [ASO K]”, the “inhibition of MALT1 expression” value (MALT1) was “good inhibitory results; also recorded: good inhibitory effects”.
In the case of “GAAGTTCATGAGCCTTGGCCC (antisense GAAGUUCAUGAGCCUUGGCCC; called an ASO prodrug, chemistry not given here) [ASO24]”, the Tumor volume (4T1 cells [1]; Day 0, ASO24 systemic by tail vein LNP-ASO, administration from day 7) is reported as 0 mm^3, the Tumor volume (4T1 cells [1]; [7]) is reported as 44 mm^3 and the Tumor volume (4T1 cells [1]; [8]) is reported as 94 mm^3. For the same substance, the Tumor volume (4T1 cells [1]; [9]) was 103 mm^3, the Tumor volume (4T1 cells [1]; [10]) was 136 mm^3 and the Tumor volume (4T1 cells [1]; [11]) was 244 mm^3. For the same substance, the Tumor volume (4T1 cells [1]; [12]) was 333 mm^3, the Tumor volume (4T1 cells [1]; [13]) was 510 mm^3 and the “inhibition of further development of cancer cells” value [2] was “significantly inhibit the further development of cancer cells”. It also gave a Tumor volume (B16F10 cells; Day 0, B16F10 subcutaneous near groin, wild-type mice, treatment from day 7, ASO intratumoral) of 0 mm^3, a Tumor volume (B16F10 cells; Day 7 (start of treatment), B16F10 subcutaneous, ASO intratumoral) of 49 mm^3 and a Tumor volume (B16F10 cells; Day 10, B16F10 subcutaneous, treatment from day 7, ASO intratumoral) of 26 mm^3. It also gave a Tumor volume (B16F10 cells; Day 13, B16F10 subcutaneous, treatment from day 7, ASO intratumoral) of 129 mm^3, a Tumor volume (B16F10 cells; Day 16, B16F10 subcutaneous, treatment from day 7, ASO intratumoral) of 311 mm^3 and a Tumor volume (E0771 cells [3]; Day 0, E0771 orthotopic fat pad, wild-type mice, from day 7 anti-PD-1 3 mg/kg i.p. once a week) of 0 mm^3. For the same substance, the Tumor volume (E0771 cells [3]; Day 7 (start of treatment), E0771 orthotopic, anti-PD-1 3 mg/kg i.p. once a week) was 49 mm^3, the Tumor volume (E0771 cells [3]; Day 10, E0771 orthotopic, from day 7 anti-PD-1 3 mg/kg i.p. once a week) was 36 mm^3 and the Tumor volume (E0771 cells [3]; Day 13, E0771 orthotopic, from day 7 anti-PD-1 3 mg/kg i.p. once a week) was 92 mm^3. For the same substance, the Tumor volume (E0771 cells [3]; Day 16, E0771 orthotopic, from day 7 anti-PD-1 3 mg/kg i.p. once a week) was 140 mm^3, the Tumor volume (E0771 cells [3]; Day 19, E0771 orthotopic, from day 7 anti-PD-1 3 mg/kg i.p. once a week) was 306 mm^3 and the Tumor volume (PyMT-A cells; Day 0, PyMT-A orthotopic fat pad, wild-type mice, treatment from day 7, ASO intratumoral) was 0 mm^3. For the same substance, the Tumor volume (PyMT-A cells; Day 7 (start of treatment), PyMT-A orthotopic, ASO intratumoral) was 13 mm^3, the Tumor volume (PyMT-A cells; Day 10, PyMT-A orthotopic, treatment from day 7, ASO intratumoral) was 41 mm^3 and the Tumor volume (PyMT-A cells; Day 13, PyMT-A orthotopic, treatment from day 7, ASO intratumoral) was 142 mm^3. The Tumor volume (PyMT-A cells; Day 16, PyMT-A orthotopic, treatment from day 7, ASO intratumoral) was 245 mm^3, the Tumor volume (PyMT-A cells; Day 19, PyMT-A orthotopic, treatment from day 7, ASO intratumoral) was 578 mm^3 and the “inhibition of MALT1 expression” value (MALT1; listed as D) was “obvious inhibitory results; also recorded: obvious inhibitory effects”. For the same substance, the Tumor volume (E0771 cells [4]; Day 0, ASO24 systemic by tail vein injection of LNP-ASO, administration from day 7) was 0 mm^3, the Tumor volume (E0771 cells [4]; [7]) was 29 mm^3 and the Tumor volume (E0771 cells [4]; [8]) was 51 mm^3. It also gave a Tumor volume (E0771 cells [4]; [9]) of 57 mm^3, a Tumor volume (E0771 cells [4]; [10]) of 86 mm^3 and a Tumor volume (E0771 cells [4]; [11]) of 195 mm^3. For the same substance, the Tumor volume (E0771 cells [4]; [12]) was 225 mm^3, the Tumor volume (E0771 cells [4]; [13]) was 313 mm^3 and the Tumor volume (4T1 cells [5]; Day 0, 4T1 orthotopic fat pad, wild-type mice, treatment from day 7, ASO intratumoral) was 0 mm^3. The Tumor volume (4T1 cells [5]; Day 7 (start of treatment), 4T1 orthotopic, ASO intratumoral) was 66 mm^3, the Tumor volume (4T1 cells [5]; Day 10, 4T1 orthotopic, treatment from day 7, ASO intratumoral) was 71 mm^3 and the Tumor volume (4T1 cells [5]; Day 13, 4T1 orthotopic, treatment from day 7, ASO intratumoral) was 205 mm^3. The Tumor volume (4T1 cells [5]; Day 16, 4T1 orthotopic, treatment from day 7, ASO intratumoral) was 377 mm^3 and the Tumor volume (4T1 cells [5]; Day 19, 4T1 orthotopic, treatment from day 7, ASO intratumoral) was 876 mm^3.
In the case of “GAGGCAGTGCTTGGGAAGGTC (antisense GAGGCAGUGCUUGGGAAGGUC; listed as RNA, chemistry not given here) [ASO I]”, the “inhibition of MALT1 expression” value (MALT1) is reported as “good inhibitory results; also recorded: good inhibitory effects”.
In the case of “GGTTTGTGGACTATACTTGT (antisense GGUUUGUGGACUAUACUUGU; listed as RNA, chemistry not given here) [ASO25]”, the “inhibition of MALT1 expression” value (MALT1) is reported as “obvious inhibitory results; also recorded: obvious inhibitory effects”.
With “GTCCAGCCAACACTGCCTTG (antisense GUCCAGCCAACACUGCCUUG; listed as RNA, chemistry not given here) [ASO J]” the “inhibition of MALT1 expression” value (MALT1) was “good inhibitory results; also recorded: good inhibitory effects”.
With “TAGAGGCAGTGCTTGGGAAG (antisense UAGAGGCAGUGCUUGGGAAG; listed as RNA, chemistry not given here) [ASO H]” the “inhibition of MALT1 expression” value (MALT1) was “good inhibitory results; also recorded: good inhibitory effects”.
In the case of “TCATGAGCCTTGGCCCACTG (antisense UCAUGAGCCUUGGCCCACUG; listed as RNA, chemistry not given here) [ASO B]”, the “inhibition of MALT1 expression” value (MALT1) is reported as “obvious inhibitory results; also recorded: obvious inhibitory effects”.
With “TTGTGGACTATACTTGTGTA (antisense UUGUGGACUAUACUUGUGUA; listed as RNA, chemistry not given here) [ASO G]” the “inhibition of MALT1 expression” value (MALT1) was “good inhibitory results; also recorded: good inhibitory effects”.
In the case of zVRPR-FMK, the “toxicity in ABC DLBCL cells” value (ABC DLBCL cells) is listed as “induces toxicity” and the “sensitivity of GCB type DLBCL cells to the inhibitor” value [6] is listed as “insensitive”.
